# According to article PMC5317004 (Scientific Reports, 2017):
# Tested on: chimeric α7-GluClβR
# Experiment: IVM pre-application before ACh, inhibition of ACh-elicited currents (whole-cell patch clamp)
# Format: cell-based, chick nAChR α7 / C. elegans GluClβ
# Description: Data were extracted from experiments performed as in panel A. Since the currents could not be recovered following an exposure to IVM, each cell was exposed only to one concentration of IVM. […] The curve was fitted to the averaged data points with a non-linear regression using the Hill equation 2 (Eq. 2; r^2 = 0.996). Error bars correspond to SEM. Total of 41 cells were used to obtain the averaged points. Recordings were performed at −60 mV.
# Since the ACh-evoked response could not be recovered after exposure of the cell to IVM, we had to perform the above application protocol in different cells for each IVM concentration separately. By that, we obtained the inhibition graph shown in the inset of Fig. 3.
# In the case of inhibition of the current response, curves were fitted to the data points by a nonlinear regression using the Hill equation 2, […]
# Supplementary Information […]
# Supplementary Materials and Methods […]
# DNA construct and preparation of cells for electrophysiological experiments The cDNA encoding the α7-GluClβ chimeric subunit was generated as described previously3, and was cloned into a pcDNA3.1 vector.
# Chinese hamster ovary cells (CHO-K1, ATCC via Biological Industries Israel, Beit Haemek Ltd.) were cultured as performed previously2 in Dulbecco 's Modified E agle Med iu m (DMEM) containing 10% fetal calf serum (Biological Industries Israel Beit Haemek Ltd.), 2 mM glutamax, 100 Units/ml penicillin G and 100 μg/ml streptomycin, and grown in 5% CO2 at 37°C under 90-95% hu midity . CHO cells were seeded on glass coverslips (13-mm diameter) placed in a 24-multiwell plate. For the expression of the α7-GluClβR, cells were transiently transfected with the pcDNA3.1 plasmid containing the receptor’s ORF (200-600 ng per well) using transit-LT1 transfection reagent (Mirus, USA), according to the manufacturer’s protocol. pIRES-CD8 plas mid (200 ng per well) was also added to enable visualization of the ex pressing cells by beads coated with anti-CD8 antibodies (Invitrogen). […]
# Reagent (Roche Life Science). Recordings were performed 48-72 hours following transfection.
# Whole-cell patch clamp recordings
# Recordings were performed in the aforementioned CHO cells, as previously described1,2. Whole-cell patch clamp experiments were performed with normal external solution (NES) contained (in millimolar): 140 NaCl, 2.8 KCl, 2 CaCl2, 2 MgCl2, 10 glucose and 10 HEPES, adjusted to pH 7.35 with NaOH (310 mOsM). The pipette solution contained […]
# (in millimolar): 130 KCl, 4 MgCl2, 4 Na2ATP, 1 EGTA and 10 HEPES, adjusted to pH 7.35 with KOH (290 mOsM). The osmolarity of these solutions was maintained by adding sucrose.
# The electrode resistance was 6-10 MΩ when filled with the pipette solution. External solutions were applied onto the cell by using the VC-77SP fast-step system (Warner Instruments, CT, USA) combined with N2 pressure of 3-4 psi to produce laminar flow of the external solution onto the patched cell. All measurements were performed at 25 °C. The currents w ere measured with an Axopatch 200B patch-clamp amplifier (Molecular Devices, Sunnyvale, CA) and a Digidata 1440A interface (Molecular Devices). Acquisition of recording data was performed at 2.5 kHz and recordings were low-pass filtered at 1 kHz, through a four-pole Bessel filter.
# The pClamp 10 software (Molecular Devices) was used for data acquisition.
# To determine the chloride conductance and the reversal potential during current decline, the following procedure was employed. […]
compound,measurement,setting,value
"CC[C@H](C)[C@H]1O[C@]2(CC[C@@H]1C)C[C@@H]1C[C@@H](C/C=C(\C)[C@@H](O[C@H]3C[C@H](OC)[C@@H](O[C@H]4C[C@H](OC)[C@@H](O)[C@H](C)O4)[C@H](C)O3)[C@@H](C)/C=C/C=C3\CO[C@@H]4[C@H](O)C(C)=C[C@@H](C(=O)O1)[C@]34O)O2 [IVM, Ivermectin]","ACh-elicited response after IVM pre-application, percent IP3/IP2","5 μM IVM for 10 sec, then 50 μM ACh 0.5 sec, relative to response after DMSO pre-application, N = 8",16 ± 5.2%
same,"ACh-elicited response after IVM and long-term wash, percent IP4/IP2","5 μM IVM for 10 sec, wash > 2 min, 50 μM ACh, N = 5",4.4 ± 1.3%
same,Hill coefficient (IVM inhibition curve),IVM applied prior to 50 μM ACh,~3
same,IC50,"IVM applied prior to 50 μM ACh, −60 mV, 41 cells",156 nM
same,Ki,"IVM applied prior to activation by ACh, IC50 taken as Ki for non-competitive inhibition, read-out: inhibition constant (Ki)",156 nM
